From ChEMBL document CHEMBL1124199, “Thienylpyrazoloquinolines: potent agonists and inverse agonists to benzodiazepine receptors” (J Med Chem, 1988) come the findings set out here.

The source made the active and inactive calls. No cut-off for these calls is given here.

What is called ED50 is the dose at which the effect has come halfway, by size or by number of responders. One may read the Ki as a measure of affinity in units of concentration, obtained from inhibition or displacement. A low value points to higher affinity.

In experiment [1] the test system is Mus musculus. In words: Inverse agonist activity of orally administered compound against a subcutaneous dose of 90 mg/kg of PTZ-induced convulsions in mice. Format: functional. Particulars: route oral.
Experiment [2] has as its system Mus musculus. In words: Inverse agonist activity of orally administered compound against a subcutaneous dose of 75 mg/kg of PTZ-induced convulsions in mice. Format: functional. Particulars: route oral.
For experiment [3], the target named is GABA-A receptor; anion channel. In words: Binding affinity against benzodiazepine (BZ) receptor by displacing [3H]diazepam in cerebral cortex of Wistar rats. Format: tissue-based, Rattus norvegicus.
For experiment [4], the system named is Mus musculus. In words: Inverse agonist activity of orally administered compound against a subcutaneous dose of 90 mg/kg of PTZ-induced convulsions in mice; Inactive up to 50 mg/kg. Format: functional, organism-based.
The test system of experiment [5] is Mus musculus. In words: Agonist activity was evaluated by the inhibition of the pentylenetetrazole (PTZ) induced convulsions after peroral administration at 50 mg/kg. Format: functional. Particulars: route oral.
The test system of experiment [6] is Mus musculus. In words: Agonist activity was evaluated by the inhibition of the pentylenetetrazole (PTZ) induced convulsions after peroral administration. Particulars: po. Format: functional.
Experiment [7] deals with Mus musculus. In words: Agonist activity was evaluated by the inhibition of the pentylenetetrazole (PTZ) induced convulsions after peroral administration; Inactive up to 50 mg/kg. Format: functional, organism-based. More on the design: dose 50 mg/kg.
Experiment [8] concerns Mus musculus. In words: Inverse agonist activity of orally administered compound against a subcutaneous dose of 75 mg/kg of PTZ-induced convulsions in mice; inactive up to 50 mg/kg. Format: functional, organism-based.
Experiment [9] relates to Mus musculus. In words: Inverse agonist activity of orally administered compound against a subcutaneous dose of 90 mg/kg of PTZ-induced convulsions in mice; inactive. Format: functional, organism-based. More on the design: dose 90 mg/kg.
The subject of experiment [10] is Mus musculus. In words: Inverse agonist activity of orally administered compound against a subcutaneous dose of 50 mg/kg of PTZ-induced convulsions in mice. Format: functional. Particulars: route oral.
Experiment [11] deals with Mus musculus. In words: Inverse agonist activity of orally administered compound against a subcutaneous dose of 90 mg/kg of PTZ-induced convulsions in mice; Inactive. Details: dose 90 mg/kg. Format: functional, organism-based.
The test system of experiment [12] is Mus musculus. In words: Inverse agonist activity of orally administered compound against a subcutaneous dose of 90 mg/kg of PTZ-induced convulsions in mice expressed as percent of mice affected. Format: functional. Particulars: route oral.
Experiment [13] relates to Mus musculus. In words: Inverse agonist activity of orally administered compound against a subcutaneous dose of 75 mg/kg of PTZ-induced convulsions in mice; Inactive up to 50 mg/kg. Format: functional, organism-based.
Experiment [14] relates to Mus musculus. In words: Inverse agonist activity of orally administered compound against a subcutaneous dose of 90 mg/kg of PTZ-induced convulsions in mice; inactive up to 50 mg/kg. Format: functional, organism-based.
In experiment [15] the test system is Mus musculus. In words: Inverse agonist activity of orally administered compound against a subcutaneous dose of 50 mg/kg of PTZ-induced convulsions in mice; expressed as percent of mice affected. Format: functional. The settings on record: route oral.

On to `Cc1cc(-n2[nH]c3c(cnc4c(F)cccc43)c2=O)cs1`, for which the results for the 50% effective dose (ED50) with Mus musculus [1] and in the experiment with Mus musculus [2] were 1.32 mg/kg and 2.58 mg/kg, respectively. In experiment [3], this molecule displayed a Ki of 0.37 nM.
Consider `Cc1cc(-n2[nH]c3c(cnc4c(C)cccc43)c2=O)cs1`, for which the values for the 50% effective dose (ED50) with Mus musculus [1] and with Mus musculus [2] were 5.24 mg/kg and 12.9 mg/kg, respectively. Moreover, the affinity in experiment [3] corresponds to a Ki of 0.38 nM.
As for `Cc1ccc(-n2[nH]c3c(cnc4c(Cl)cccc43)c2=O)s1`, the ED50 entry with Mus musculus [4] was “inactive”. In addition, in [3], the Ki was determined as 0.75 nM. In the experiment on Mus musculus [5], this molecule displayed an Animals affected of 25%.
Molecule `Cc1ccc(-n2[nH]c3c(cnc4cc(F)ccc43)c2=O)s1` gave an inhibition constant Ki in [3] of 0.65 nM. Further, the 50% effect level in the experiment with Mus musculus [6] (ED50) was put at a dose of 16.3 mg/kg.
For `O=C1C2C=Nc3ccccc3C2=NN1c1ccc(Cl)cc1` (centres undefined) [CGS-9896], in experiment [3], the inhibition constant Ki was 0.83 nM. The molecule further displayed a median effective dose (ED50) in the experiment on Mus musculus [6] of 1.17 mg/kg.
In the case of `COC(=O)c1sccc1-n1[nH]c2c(cnc3ccccc32)c1=O`, the ED50 result with Mus musculus [7], in the experiment with Mus musculus [8] and with Mus musculus [9] was “inactive” in each case. Also, the Ki in experiment [3] is 142 nM.
For `O=c1c2cnc3ccccc3c2[nH]n1-c1cccs1`, the ED50 entry in the experiment with Mus musculus [7] was “inactive”. The Animals affected with Mus musculus [10] was determined as 50%. Moreover, the ED50 in the experiment on Mus musculus [1] is 9.54 mg/kg. This molecule gave an inhibition constant (Ki) in experiment [3] of 0.41 nM.
Consider `Cc1ccc2c(c1)ncc1c(=O)n(-c3ccc(C)s3)[nH]c12`, for which the ED50 result in the experiment with Mus musculus [7] and with Mus musculus [11] was “inactive” each time. The molecule further registered an inhibition constant Ki in experiment [3] of 2.34 nM.
For the molecule `O=c1c2cnc3ccccc3c2[nH]n1-c1ccc(Cl)s1`, the ED50 entry in the experiment on Mus musculus [7] was “inactive”. The molecule further showed an Affected animals in the experiment with Mus musculus [12] of 25%. The molecule further had a Ki in [3] of 2.48 nM.
For `CCn1cc2c(=O)n(-c3csc(C)c3)nc-2c2ccccc21`, the figures for the ED50 in the experiment on Mus musculus [1] and in the experiment on Mus musculus [2] were 5.24 mg/kg and 13.3 mg/kg, respectively. Affinity in experiment [3] was put at a Ki of 436 nM.
In turn, `CCc1cc(-n2[nH]c3c(cnc4ccccc43)c2=O)cs1` had a median effective dose (ED50) with Mus musculus [1] of 10.3 mg/kg. In the experiment with Mus musculus [8], the ED50 entry is “inactive”. Further, the affinity in experiment [3], expressed as Ki, was 0.41 nM.
Consider `O=C(O)c1sccc1-n1[nH]c2c(cnc3ccccc32)c1=O`, for which the ED50 result in the experiment on Mus musculus [7], with Mus musculus [11] and with Mus musculus [8] was “inactive” each time. The same molecule showed an inhibition constant Ki in experiment [3] of 17.8 nM.
Take `Cc1ccc(-n2[nH]c3c(cnc4cc(Cl)ccc43)c2=O)s1`: the ED50 result with Mus musculus [7] and in the experiment on Mus musculus [4] was “inactive” in each case. In addition, in [3], the Ki was 1.05 nM.
In the experiment on Mus musculus [1], `Cc1cc(-n2[nH]c3c(cnc4ccccc43)c2=O)cs1` came in with an ED50 of 0.92 mg/kg.
`CN1C(=O)CN=C(c2ccccc2)c2cc(Cl)ccc21` [DIAZEPAM] came in with a median effective dose (ED50) in the experiment on Mus musculus [6] of 0.67 mg/kg.
For `O=C1C2C=Nc3ccccc3C2=NN1c1ccccc1` (centres undefined), in the experiment with Mus musculus [13], the ED50 result is “inactive”.
Regarding `CCCCc1ccc(-n2[nH]c3c(cnc4ccccc43)c2=O)s1`, the affinity in experiment [3], expressed as Ki, was 1.48 nM. This molecule gave an ED50 in the experiment on Mus musculus [6] of 12.5 mg/kg.
As to `Cc1ccc2c(c1)ncc1c(=O)n(-c3csc(C)c3)[nH]c12`, the ED50 entry in the experiment on Mus musculus [7] and in the experiment with Mus musculus [11] was “inactive” each time. For the same molecule, the affinity in [3], expressed as Ki, was 0.96 nM.
As for `Cc1cc(-n2[nH]c3c(cnc4cc(Cl)ccc43)c2=O)cs1`, the ED50 entry in the experiment with Mus musculus [7], in the experiment on Mus musculus [14] and in the experiment with Mus musculus [8] was “inactive” each time. In experiment [3], this molecule showed a Ki of 0.78 nM.
On to `CCOC(=O)c1cc(C)sc1-n1[nH]c2c(cnc3ccccc32)c1=O`, for which the ED50 entry in the experiment on Mus musculus [7] and in the experiment on Mus musculus [4] was “inactive” throughout. This molecule displayed a Ki in [3] of 9.84 nM.
As for `Cc1cscc1-n1[nH]c2c(cnc3ccccc32)c1=O`, the values for the ED50 in the experiment with Mus musculus [1] and in the experiment on Mus musculus [2] were 22.3 mg/kg and 84.4 mg/kg, respectively. Moreover, the affinity in [3], expressed as Ki, was 6.86 nM.
With `Cc1ccc(-n2[nH]c3c(cnc4c(C)cccc43)c2=O)s1`, in the experiment on Mus musculus [4], the ED50 result was “inactive”. Also, the affinity in [3] corresponds to a Ki of 0.83 nM. The molecule also gave an ED50 in the experiment with Mus musculus [6] of 25 mg/kg.
On to `Cc1cc(-n2[nH]c3c(cnc4cc(F)ccc43)c2=O)cs1`, for which, in the experiment with Mus musculus [15], the Affected animals amounted to 37.7%. The molecule also yielded an ED50 in the experiment with Mus musculus [1] of 6.15 mg/kg. In addition, the inhibition constant (Ki) in experiment [3] is 0.64 nM.
As for `Cc1cc(-n2[nH]c3c(cnc4ccccc43)c2=O)c(Cl)s1`, the ED50 result in the experiment with Mus musculus [7], with Mus musculus [11] and in the experiment on Mus musculus [8] was “inactive” throughout. The Ki in experiment [3] was 4.69 nM.
As to `Cc1csc(-n2[nH]c3c(cnc4ccccc43)c2=O)c1`, the ED50 entry in the experiment with Mus musculus [7] and in the experiment with Mus musculus [8] was “inactive” throughout. Also, the Affected animals with Mus musculus [12] came to 62.5%. Also, the Ki in experiment [3] turned out to be 0.48 nM.
The molecule `Cc1ccc(-n2nc3c4ccccc4n(C)cc-3c2=O)s1` yielded an inhibitory constant (Ki) in experiment [3] of 1020 nM. The molecule further yielded a 50% effective dose (ED50) in the experiment with Mus musculus [6] of 13.4 mg/kg.
As for `Cc1cc(-n2[nH]c3c(cnc4c(Cl)cccc43)c2=O)cs1`, the ED50 with Mus musculus [1] was determined as 7.7 mg/kg; in the experiment with Mus musculus [2], 13.5 mg/kg. The same molecule had a Ki in experiment [3] of 0.63 nM.
Regarding `Cc1cc(-n2[nH]c3c(cnc4ccccc43)c2=O)c(Br)s1`, the ED50 result in the experiment on Mus musculus [7], in the experiment on Mus musculus [14] and with Mus musculus [8] was “inactive” in each case. Besides, in [3], the Ki is 27.2 nM.
As to `Cc1cc(C(=O)O)c(-n2[nH]c3c(cnc4ccccc43)c2=O)s1`, the ED50 result in the experiment on Mus musculus [7] and with Mus musculus [4] was “inactive” each time. In experiment [3], this molecule returned an inhibition constant (Ki) of 21.6 nM.
In [3], `Cc1cc(-n2[nH]c3c(cnc4ccccc43)c2=O)sc1C` registered a Ki of 0.73 nM. The same molecule returned an ED50 with Mus musculus [6] of 30.6 mg/kg.
Take `Cc1ccc(-n2[nH]c3c(cnc4c(F)cccc43)c2=O)s1`: in [3], affinity was put at a Ki of 0.92 nM. The ED50 with Mus musculus [6] was determined as 30.4 mg/kg.
As for `Cc1cc(-n2nc3c4ccccc4n(C)cc-3c2=O)cs1`, the ED50 came out at 1.48 mg/kg with Mus musculus [1] and 2.94 mg/kg in the experiment with Mus musculus [2]. The molecule also yielded an inhibition constant Ki in [3] of 215 nM.
With `O=c1c2cnc3ccccc3c2[nH]n1-c1csc(Cl)c1`, the 50% effective dose (ED50) in the experiment on Mus musculus [1] stood at 11.5 mg/kg; in the experiment on Mus musculus [2], 23.2 mg/kg. In addition, the Ki in experiment [3] is 0.73 nM.
In [3], `CCc1ccc(-n2[nH]c3c(cnc4ccccc43)c2=O)s1` showed an inhibition constant (Ki) of 1.02 nM. The molecule further yielded an ED50 in the experiment on Mus musculus [6] of 14.3 mg/kg.
On to `O=c1c2cnc3ccccc3c2[nH]n1-c1ccsc1`, for which the ED50 was 2.49 mg/kg with Mus musculus [1] and 7.62 mg/kg in the experiment on Mus musculus [2]. The molecule also returned a Ki in experiment [3] of 0.73 nM.
